Data reported in article PMC9851200, “Multiparameter phenotypic screening for endogenous TFEB and TFE3 translocation identifies novel chemical series modulating lysosome function” (Autophagy, 2022).

Tests used:
endogenous TFEB = assay: TFEB nuclear translocation, immunocytochemistry high-content imaging; assay type: cell-based; conditions: PKIS2 primary screening
endogenous TFE3 = assay: TFE3 nuclear translocation, immunocytochemistry high-content imaging; assay type: cell-based; conditions: PKIS2 primary screening
SH-SY5Y cells [1] = conditions: PKIS2 primary screening; for DQ Intensity: DQ Red BSA intensity; for DQ Spot: DQ Red BSA spot count
Text: The PKIS2 Library was supplied by The Structural Genomics Consortium at the University of North Carolina at Chapel Hill.

SH-SY5Y cells [2] = assay: AK (adenylate kinase) release ToxiLight cytotoxicity assay; conditions: PKIS2 primary screening; note: reference of the scale not given here
SH-SY5Y cells [3] = assay: Nuclear count from microscopy images (cellular growth and toxicity); conditions: PKIS2 primary screening; note: reference of the scale not given here
Throughout, for DQ Intensity: reference of the scale not given here.
Throughout, for DQ Spot: reference of the scale not given here.

SMILES | TFEB % (endogenous TFEB) [%] | TFE3 % (endogenous TFE3) [%] | DQ Intensity (SH-SY5Y cells [1]) | DQ Spot (SH-SY5Y cells [1]) | AK (SH-SY5Y cells [2]) | Nuclear Count (SH-SY5Y cells [3])
COc1cc(Nc2nccc(N3CCC(NC(=O)C4COc5ccccc5O4)C3)n2)cc(OC)c1OC (stereo not drawn) [GSK1379761] | 2.44 | 10.33 | 95.14 | 97.75 | 96.01 | 125.75
COc1cc(Nc2nccc(N3CCC(NC(=O)Nc4cc(C)ccc4C)C3)n2)cc(OC)c1OC (stereo not drawn) [GSK1379762] | 7.03 | 14.40 | 110.39 | 96.86 | 74.55 | 111.04
COc1cccc(NC(=O)NC2CCN(c3ccnc(Nc4cc(OC)c(OC)c(OC)c4)n3)C2)c1 (stereo not drawn) [GSK1379763] | 4.72 | 18.80 | 128.42 | 124.42 | 111.80 | 90.02
COc1cccc(CNC(=O)NC2CCN(c3ccnc(Nc4cc(OC)c(OC)c(OC)c4)n3)C2)c1 (stereo not drawn) [GSK1379765] | 3.20 | 15.97 | 73.44 | 97.23 | 74.87 | 98.25
COc1cc(Nc2nccc(N3CCC(NC(=O)Nc4ccc5c(c4)OCO5)C3)n2)cc(OC)c1OC (stereo not drawn) [GSK1379766] | 4.47 | 9.31 | 63.32 | 78.55 | 118.87 | 95.41
COC(=O)c1cccc(NC(=O)NC2CCN(c3ccnc(Nc4cc(OC)c(OC)c(OC)c4)n3)C2)c1 (stereo not drawn) [GSK1379767] | 5.97 | 6.50 | 85.74 | 95.59 | 115.43 | 122.32
COc1ccc(CNC(=O)NC2CCN(c3ccnc(Nc4ccc(F)cc4)n3)CC2)cc1 [GSK1379788] | 3.80 | 14.89 | 86.32 | 97.11 | 114.99 | 82.62
O=C(Nc1ccccc1F)NC1CCN(c2ccnc(Nc3ccc(F)cc3)n2)CC1 [GSK1379800] | 6.86 | 9.18 | 95.32 | 97.06 | 198.42 | 118.12
COc1ccc(Nc2nccc(N3CCC(NC(=O)C(C)c4ccc(Cl)cc4)CC3)n2)cc1 (stereo not drawn) [GSK1379812] | 5.92 | 16.53 | 134.37 | 89.99 | 91.65 | 97.15
COc1cc(Nc2nccc(N3CCC(NS(=O)(=O)c4ccc(NC(C)=O)cc4)CC3)n2)cc(OC)c1OC [GSK1379825] | 12.82 | 12.08 | 96.24 | 89.82 | 75.82 | 107.84
O=C(Nc1ccc2c(c1)OCO2)NC1CCN(c2ccnc(NCc3ccc(F)cc3)n2)CC1 [GSK1379859] | 6.05 | 12.41 | 77.50 | 79.61 | 102.69 | 98.68
COC(=O)c1cccc(NC(=O)NC2CCN(c3ccnc(NCc4ccc(F)cc4)n3)CC2)c1 [GSK1379860] | 6.34 | 10.41 | 146.32 | 93.58 | 178.25 | 118.43
O=C(NCCNc1ccnc(Nc2ccc(F)cc2)n1)c1cc2ccccc2s1 [GSK1379874] | 5.88 | 18.78 | 94.35 | 110.46 | 71.16 | 89.16
Cc1ccc(C)c(NC(=O)NCCNc2ccnc(Nc3ccc(F)cc3)n2)c1 [GSK1379878] | 8.11 | 7.01 | 136.83 | 104.85 | 103.06 | 85.48
COc1cccc(NC(=O)NCCNc2ccnc(Nc3ccc(F)cc3)n2)c1 [GSK1379879] | 4.69 | 16.07 | 127.01 | 112.84 | 80.56 | 93.19
O=C(NCCNc1ccnc(Nc2ccc(F)cc2)n1)Nc1ccccc1F [GSK1379880] | 3.19 | 7.81 | 104.78 | 97.82 | 82.91 | 133.27
O=C(NCCNc1ccnc(Nc2ccc(F)cc2)n1)Nc1ccc2c(c1)OCO2 [GSK1379882] | 4.46 | 17.40 | 52.40 | 79.77 | 105.11 | 67.71
COC(=O)c1cccc(NC(=O)NCCNc2ccnc(Nc3ccc(F)cc3)n2)c1 [GSK1379883] | 8.27 | 3.78 | 102.62 | 95.44 | 105.04 | 115.63

SMILES | TFEB % (endogenous TFEB) [%] | TFE3 % (endogenous TFE3) [%] | DQ Intensity (SH-SY5Y cells [1]) | DQ Spot (SH-SY5Y cells [1]) | AK (SH-SY5Y cells [2]) | Nuclear Count (SH-SY5Y cells [3])
COc1ccc(Nc2nccc(NCCNC(=O)c3cc4ccccc4s3)n2)cc1 [GSK1379896] | 5.04 | 17.76 | 100.56 | 107.99 | 100.12 | 88.87
COc1ccc(Nc2nccc(NCCNC(=O)Nc3cc(C)ccc3C)n2)cc1 [GSK1379899] | 7.12 | 15.31 | 123.56 | 108.96 | 79.47 | 88.82
COc1ccc(Nc2nccc(NCCNC(=O)Nc3ccccc3F)n2)cc1 [GSK1379901] | 13.61 | 12.56 | 112.97 | 125.52 | 100.88 | 49.37
O=C(NCCNc1ccnc(NCc2ccc(F)cc2)n1)c1cc2ccccc2s1 [GSK1379944] | 8.85 | 12.27 | 122.34 | 117.48 | 378.86 | 79.28
Cc1cc(-c2ccnc(Nc3cccc(C#N)c3)n2)cc(C)c1O [GSK1440913] | 7.49 | 21.61 | 63.54 | 78.51 | 97.58 | 76.93
CNC(=O)c1ccccc1Nc1nc(Nc2cccc(CS(C)(=O)=O)c2)ncc1C [GSK1520489] | 10.40 | 10.71 | 192.20 | 118.45 | 149.13 | 38.33
COc1ccc(Nc2ncc(C#N)c(Nc3ccccc3C(N)=O)n2)cc1N1CCN(C)CC1 [GSK1558669] | 5.16 | 11.88 | 142.11 | 120.07 | 96.14 | 62.25
CNC(=O)c1ccccc1Nc1nc(Nc2ccc(N3CCOCC3)cc2)ncc1Cl [GSK1576028] | 42.50 | 5.85 | 165.31 | 111.32 | 149.21 | 15.51
Cc1cc(N2CCC(NS(=O)(=O)c3ccc(F)cc3)CC2)nc(Nc2cccc(C#N)c2)n1 [GSK1653537] | 10.28 | 18.21 | 104.60 | 98.84 | 183.29 | 84.44
COc1ccc(S(=O)(=O)NC2CCN(c3cc(C)nc(Nc4cccc(C#N)c4)n3)CC2)cc1 [GSK1653539] | 5.30 | 12.26 | 59.46 | 82.66 | 67.09 | 97.37
Cc1cc(N2Cc3ccccc3C2)nc(Nc2ccc(S(=O)(=O)N3CCOCC3)cc2)n1 [GSK1669917] | 1.55 | 8.23 | 64.14 | 76.32 | 117.66 | 138.98
N#Cc1ccc(CCNc2nccc(-c3cccc(CN4CCNCC4)c3)n2)cc1 [GSK2137462] | 6.80 | 23.49 | 97.76 | 74.26 | 187.39 | 74.38
Nc1n[nH]c2cc(-c3ccccn3)ccc12 [GSK2189892] | 8.33 | 11.18 | 114.80 | 107.54 | 114.93 | 100.38
Nc1cccc(-c2ccc3c(N)n[nH]c3c2)n1 [GSK2192730] | 5.46 | 14.87 | 80.06 | 98.33 | 126.21 | 95.98
Nc1cccc(-c2ccc3c(N)n[nH]c3c2)c1 [GSK2193613] | 4.96 | 9.08 | 55.67 | 76.28 | 94.13 | 112.12
CNc1nccc(-c2ccc3c(N)n[nH]c3c2)n1 [GSK2206003] | 3.51 | 14.62 | 68.32 | 96.17 | 89.67 | 71.44
CN(C)c1cc(-c2ccc3c(N)n[nH]c3c2)nc(N)n1 [GSK2219329] | 4.04 | 13.03 | 87.81 | 98.17 | 83.85 | 85.79
